Measured values published in patent US20240009159A1, “ANTIVIRAL COMPOSITION FOR SARS-COV-2 AND HCOV-OC43 COMPRISING RHEIN, MECLOFENAMIC ACID, OR A COMBINATION THEREOF” (SEOUL NATIONAL UNIVERSITY R&DB FOUNDATION, priority 2020, published 2024).
Where two headings read alike, the source gives them in different places.

Legend:
SARS-CoV-2 [1] = format: cell-based; settings: SARS-CoV-2-infected Vero cells
SARS-CoV-2 [2] = format: cell-based; settings: SARS-CoV-2-infected Calu-3 cells
HCoV-OC43 [3] = assay: viral RNA level by qRT-PCR in HCoV-OC43-infected HCT-8 cells; format: cell-based, human coronavirus OC43 (HCoV-OC43)
HCoV-OC43 [4] = assay: viral RNA level by qRT-PCR in HCoV-OC43-infected Vero cells; format: cell-based, human coronavirus OC43 (HCoV-OC43); settings: for viral RNA level of N (normalized to GAPDH): control DMSO
SARS-CoV-2 [5] = format: cell-based; settings: MA at 50 μM, treated two hours before infection; SARS-CoV-2-infected differentiated HBEC cells, 3.3×10^4 PFU; 48 hours after infection
[6] = rhein at 25 μM, MOI 0.05, 24 hours after infection, control DMSO

SMILES	viral RNA levels of nsp12, M, and N (normalized to GAPDH) compared with the control group (SARS-CoV-2 [1]; [6])	viral RNA levels of nsp12, M, and N (normalized to GAPDH) compared with the control group (SARS-CoV-2 [2]; [6])	viral RNA level of N (normalized to GAPDH) (HCoV-OC43 [3]; rhein at 250 μM and 25 μM, 24 hours after infection, control DMSO+Ethanol)	dose dependence of inhibition of the RNA level of N (HCoV-OC43 [4]; increasing concentration of rhein (5-50 μM), FIG. 1D)	viral RNA level of N (normalized to GAPDH) (HCoV-OC43 [4]; rhein at 5 μM, 10 μM, 25 μM, and 50 μM, 24 hours after infection)	viral RNA levels (nsp12, M, and N, normalized to GAPDH) compared with the control group (SARS-CoV-2 [5]) [%]	viral RNA levels of nsp12, M, and N (normalized to GAPDH) compared with the control group (SARS-CoV-2 [1]; MA at 50 μM, control ethanol)	viral RNA levels of nsp12, M, and N (normalized to GAPDH) compared with the control group (SARS-CoV-2 [2]; MA at 50 μM, control ethanol)	viral RNA level of N (normalized to GAPDH) (HCoV-OC43 [3]; MA at 50 μM, control DMSO and ethanol)	viral RNA level of N (normalized to GAPDH) (HCoV-OC43 [4]; MA at 10 μM, 25 μM, 50 μM, and 100 μM)
O=C(O)c1cc(O)c2c(c1)C(=O)c1cccc(O)c1C2=O [rhein, 4,5-dihydroxy-9,10-dioxoanthracene-2-carboxylic acid]	less than 30%	less than 5%	significantly inhibited	dose-dependent effect was confirmed	significantly inhibited	–	–	–	–	–
Cc1ccc(Cl)c(Nc2ccccc2C(=O)O)c1Cl [MA, meclofenamic acid]	–	–	–	–	–	≤ 40	less than 5%	less than 5%	significantly inhibited	significantly inhibited
